Assay results reported in patent US9328093B2, “Selective inhibitors of ubiquitin specific protease 7, the pharmaceutical compositions thereof and their therapeutic applications” (HYBRIGENICS SA, priority 2010, dated 2016).

Tests used:
[1] = test system: HCT116 colon cancer cells; assay: HCT116 cell viability and proliferation assay (MTS); format: cell-based; settings: Homo sapiens, HCT-116, 72 h, HCT116, 72 hours, read-out: Cell viability (MTS): HCT116 GI50 Day3
Method: HCT116 colon cancer cells were obtained from ATCC (American Type Culture Collection), and maintained in Mc Coy's 5A medium containing 10% FBS, 3 mM glutamine and 1% penicillin/streptomycin. Cells were incubated at 37° C. in a humidified atmosphere containing 5% CO2.
Cell viability was assayed using the MTS technique in 96-well culture plates (CellTiter 96® Aqueous Non-Radioactive Cell Proliferation Assay, Promega) according to the manufacturer's instructions. MTS (3-(4,5-dimethyl-thiazol-2-yl)-5-(3-carboxy-methoxyphenyl)-2-(4-sulfophenyl)-2H-tetra-zolium) is a MTT-derived tetrazolium that is reduced in metabolically active cells into a soluble, cell-permeant formazan. The amount of formazan, detected by its absorbance at 492 nm is proportional to the number of living, metabolically active cells.
10^3 HCT116 cells were seeded per well. 24 hours later, the medium was changed and the cells treated in triplicate with the concentrations of each compound from 100 μM to 50 nM. The compounds were diluted in 100% DMSO, whose final concentration on cells was kept at 0.5%.
Cells were incubated with the compounds for 72 hours, and their viability then assayed by the addition of MTS for 2 hours. Absorbance at 492 nm was measured directly from the 96-well culture plates. Gl50 (Growth Inhibition 50) concentrations for each compound were calculated using a sigmoidal variable slope fit (Prism 4.0, Graphpad Softwares). Values represent mean of three independent experiments.

USP8 = biological target: T1, USP8 (Homo sapiens, UniProt P40818); assay: USP8 assay with GST-Ub52-Flag substrate (HTRF); format: biochemical; settings: USP8 400 pM
T1 construct: His (from pFastBac-HT vector) (N); made in house; host or cells: Sf9 or High Five insect cells, baculovirus
T1 sequence (P40818 1-1118): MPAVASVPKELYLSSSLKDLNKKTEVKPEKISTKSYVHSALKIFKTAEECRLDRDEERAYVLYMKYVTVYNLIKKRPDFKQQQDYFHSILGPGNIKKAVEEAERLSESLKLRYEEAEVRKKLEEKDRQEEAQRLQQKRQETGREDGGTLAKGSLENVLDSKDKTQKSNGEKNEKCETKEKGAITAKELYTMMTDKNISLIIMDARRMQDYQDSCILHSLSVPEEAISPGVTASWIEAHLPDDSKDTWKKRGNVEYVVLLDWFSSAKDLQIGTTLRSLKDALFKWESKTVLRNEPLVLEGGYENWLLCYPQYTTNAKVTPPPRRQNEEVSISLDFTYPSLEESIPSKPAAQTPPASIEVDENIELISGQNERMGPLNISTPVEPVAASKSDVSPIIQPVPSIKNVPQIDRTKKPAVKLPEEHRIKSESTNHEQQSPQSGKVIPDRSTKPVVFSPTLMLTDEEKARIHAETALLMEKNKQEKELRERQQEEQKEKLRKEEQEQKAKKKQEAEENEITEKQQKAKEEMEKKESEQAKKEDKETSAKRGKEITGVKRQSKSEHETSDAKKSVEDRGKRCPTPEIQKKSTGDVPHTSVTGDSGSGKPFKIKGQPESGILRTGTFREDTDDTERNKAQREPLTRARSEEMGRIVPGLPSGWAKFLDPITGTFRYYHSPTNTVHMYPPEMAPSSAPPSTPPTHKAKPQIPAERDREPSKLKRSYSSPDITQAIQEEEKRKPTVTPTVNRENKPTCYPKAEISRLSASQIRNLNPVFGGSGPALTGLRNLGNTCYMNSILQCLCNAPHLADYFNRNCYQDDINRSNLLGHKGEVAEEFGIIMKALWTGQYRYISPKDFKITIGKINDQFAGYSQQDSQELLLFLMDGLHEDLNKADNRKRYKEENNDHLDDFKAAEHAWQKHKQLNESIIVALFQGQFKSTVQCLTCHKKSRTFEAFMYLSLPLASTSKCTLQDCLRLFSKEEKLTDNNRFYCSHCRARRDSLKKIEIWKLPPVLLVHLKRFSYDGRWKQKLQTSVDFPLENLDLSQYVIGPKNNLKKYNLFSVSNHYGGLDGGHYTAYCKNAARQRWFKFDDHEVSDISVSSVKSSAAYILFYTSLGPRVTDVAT
Method: (§1) For compounds 26 to 38, the in-vitro assays on USP7 and USP8 were carried out according to the following procedure
(§2) The present examples 26 to 38 makes it possible to validate the use of GST-Ub52-Flag in an assay based on the time-resolved measurement of fluorescence emitted by […] in homogenous medium.
(§3) The assay is carried out on multiwell assay plates. The plates are analyzed on a PHERAstar fluorimeter (BMG) after an overnight incubation at 4° C. (excitation 337 nm, emission 620 and 665 nm).
(§4) The reagents used were as follows: • Solution of USP7 at 200 pM and USP8 at 400 pM in 50 mM Tris HCl pH 7.6, Bovine Serum Albumin 0.05%, DTT 5 mM. • Anti-Flag-K (CIS bio international), solution at 0.2 μM in 0.8 M KF, 0.1 Bovine Serum Albumin, Tris HCl 25 mM pH 7.6. • Anti-GST antibody-XL665 conjugate (CIS bio international), solution at 2.6 μM in 0.8 M KF, 0.1% Bovine Serum Albumin, Tris HCl 25 mM pH 7.6. • GST-Ub52-flag solution at 14.75 μM & MBP_Ub52 at 37.7 μM are prepared by dilutions from the stock solution described above in 50 mM Tris HCl pH 7.6, EDTA 0.5 mM, Bovine Serum Albumin 0.05%, DTT 5 mM.
(§5) The enzyme reaction is carried out by mixing GST-Ub52-flag solution with 5 μl of USP7 solution (200 pM final) or 5 μl of USP8 (400 pM final). This mixture is incubated for one hour at room temperature on a multiwell assay plate. A 10 μl mixture of 5 μl of anti-Flag-K solution (0.2 μM) plus 5 μl of anti-GST-XL665 antibody (2.6 μM) is added to each well of the multiwell assay plate. The plate is read after an overnight incubation at 4° C. on a PHERAstar fluorimeter (BMG).
(§6) The decrease in the signal correlates with the increase in enzyme activity i.e. the cleavage of GST-Ub52-Flag substrate. The format used is therefore entirely suitable for a method of assaying an enzyme of the deubiquitinating type such as ubiquitin specific protease, but also for determining a modulator of this enzyme activity.
(§7) The same procedures as mentioned above for assaying the activity of enzymes of the deubiquitinating type are carried out but the various reaction mixtures are incubated with identical enzyme concentration, in the presence or absence of a test compounds 26 to 38. Data (mean values+/− standard deviation) were analyzed as % of control (no compound) and plotted as percentage versus the Log of the compound concentration using GraphPad (Prism).

USP7 = biological target: T2, USP7 (Homo sapiens, UniProt Q93009); assay: USP7 assay with GST-Ub52-Flag substrate (HTRF); format: biochemical; settings: USP7 200 pM
T2 construct: Full-length wild-type human USP7 and its catalytic mutant (cysteine 223 replaced by alanine, C223A) were produced as N-terminally His-tagged fusions; His (N); made in house; host or cells: Spodoptera frugiperda Sf9 (or High Five) insect cells, baculovirus pFastBac-HT-B
Method: as §1, §2, §3, §4, §5, §6, §7

For `Cc1cccc(CN2CCC(CNC(=O)c3ccc4c(Cl)c5c(nc4c3)CCCC5)CC2)c1` [Example 1, 9-Chloro-5,6,7,8-tetrahydro-acridine-3-carboxylic acid [1-(3-methyl-benzyl)-piperidin-4-ylmethyl]-amide], the GI50 [1] was 2 µM.
For `CCN1CCCC1CNC(=O)c1ccc2c(Cl)c3c(nc2c1)CCCC3` (centres unmarked) [Example 2, 9-Chloro-5,6,7,8-tetrahydro-acridine-3-carboxylic acid (1-ethyl-pyrrolidin-2-ylmethyl)-amide], the GI50 [1] was 5 µM.
With `CCCN(CCC)CCNC(=O)c1ccc2c(Cl)c3c(nc2c1)CCCC3` [Example 3, 9-Chloro-5,6,7,8-tetrahydro-acridine-3-carboxylic acid (2-dipropylamino-ethyl)-amide] the GI50 [1] was 3.5 µM.
Compound `CCCCN(CC)CCNC(=O)c1ccc2c(Cl)c3c(nc2c1)CCCC3` [Example 4, 9-Chloro-5,6,7,8-tetrahydro-acridine-3-carboxylic acid [2-(butyl-ethyl-amino)-ethyl]-amide] has a GI50 [1] of 4 µM.
Compound `CCCN(CCC)CCCNC(=O)c1ccc2c(Cl)c3c(nc2c1)CCCC3` [Example 6, 9-Chloro-5,6,7,8-tetrahydro-acridine-3-carboxylic acid (3-dipropylamino-propyl)-amide] has a GI50 [1] of 3.9 µM.
For `CCN(CC)CCNC(=O)c1ccc2c(Cl)c3c(nc2c1)CCCC3` [Example 7, 9-Chloro-5,6,7,8-tetrahydro-acridine-3-carboxylic acid (2-diethylamino-ethyl)-amide], the GI50 [1] was 4.3 µM.
`O=C(NCCCN1CCCC1)c1ccc2c(Cl)c3c(nc2c1)CCCC3` [Example 8, 9-Chloro-5,6,7,8-tetrahydro-acridine-3-carboxylic acid (3-pyrrolidin-1-yl-propyl)-amide] was tested, and the GI50 [1] was 5.9 µM.
`CC1CCCC(C)N1CCCNC(=O)c1ccc2c(Cl)c3c(nc2c1)CCCC3` (centres unmarked) [Example 9, 9-Chloro-5,6,7,8-tetrahydro-acridine-3-carboxylic acid [3-(2,6-dimethyl-piperidin-1-yl)-propyl]-amide] was tested, and the GI50 [1] was 3.6 µM.
With `CCN(CC)CCCNC(=O)c1ccc2c(Cl)c3c(nc2c1)CCCC3` [Example 10, 9-Chloro-5,6,7,8-tetrahydro-acridine-3-carboxylic acid (3-diethylamino-propyl)-amide] the GI50 [1] was 5 µM.
Work on `CN(C)CCNC(=O)c1ccc2c(Cl)c3c(nc2c1)CCCC3` [Example 11, 9-Chloro-5,6,7,8-tetrahydro-acridine-3-carboxylic acid (2-dimethylamino-ethyl)-amide] yielded a GI50 [1] of 7.8 µM.
`O=C(c1ccc2c(Cl)c3c(nc2c1)CCCC3)N1CCCCCC1` [Example 12, Azepan-1-yl-(9-chloro-5,6,7,8-tetrahydro-acridin-3-yl)-methanone] gave a GI50 [1] of 20 µM.
In the case of `CCCN1CCN(CCCNC(=O)c2ccc3c(Cl)c4c(nc3c2)CCCC4)CC1` [Example 13, 9-Chloro-5,6,7,8-tetrahydro-acridine-3-carboxylic acid [3-(4-propyl-piperazin-1-yl)-propyl]-amide], the GI50 [1] is reported as 5.9 µM.
With `CN1CCN(CCCNC(=O)c2ccc3c(Cl)c4c(nc3c2)CCCC4)CC1` [Example 15, 9-Chloro-5,6,7,8-tetrahydro-acridine-3-carboxylic acid [3-(4-methyl-piperazin-1-yl)-propyl]-amide] the GI50 [1] was 7.4 µM.
`O=C(c1ccc2c(Cl)c3c(nc2c1)CCCC3)N1CCC(N2CCCCC2)CC1` [Example 16, [1,4′]Bipiperidinyl-1′-yl-(9-chloro-5,6,7,8-tetrahydro-acridin-3-yl)-methanone] gave a GI50 [1] of 13.5 µM.
In the case of `O=C(NCCN1CCCCCC1)c1ccc2c(Cl)c3c(nc2c1)CCCC3` [Example 27, N-(2-(azepan-1-yl)ethyl)-9-chloro-5,6,7,8-tetrahydroacridine-3-carboxamide], the GI50 [1] is reported as 10 µM, the IC50 (USP8) is reported as > 200 µM and the IC50 (USP7) is reported as 15.4 µM.
`O=C(NCCN1CCCCC1)c1ccc2c(Cl)c3c(nc2c1)CCCC3` [Example 28, 9-chloro-N-(2-(piperidin-1-yl)ethyl)-5,6,7,8-tetrahydroacridine-3-carboxamide] was tested, and the GI50 [1] was 8.8 µM, the IC50 (USP8) was > 200 µM and the IC50 (USP7) was 11.9 µM.
With `CN1CCC(CN2CCN(C(=O)c3ccc4c(Cl)c5c(nc4c3)CCCC5)CC2)CC1` [Example 29, (9-chloro-5,6,7,8-tetrahydroacridine-3-yl)(4-((1-methylpiperidin-4-yl)methyl)piperazin-1-yl)methanone] the GI50 [1] was 7.3 µM, the IC50 (USP8) was > 200 µM and the IC50 (USP7) was 8.5 µM.
With `CN1CCC(N2CCN(C(=O)c3ccc4c(Cl)c5c(nc4c3)CCCC5)CC2)CC1` [Example 30, (9-chloro-5.6,7,8-tetrahydroacridine-3-yl)(4-(1-methylpiperidin-4-yl)piperazin-1-yl)methanone] the GI50 [1] was 12.5 µM, the IC50 (USP8) was > 200 µM and the IC50 (USP7) was 23 µM.
With `O=C(c1ccc2c(Cl)c3c(nc2c1)CCCC3)N1CCCCC1` [Example 31, (9-chloro-5,6,7,8-tetrahydroacridine-3-yl)(piperidin-1-yl)methanone] the GI50 [1] was 11.4 µM, the IC50 (USP8) was > 200 µM and the IC50 (USP7) was 24.5 µM.
In the case of `O=C(NCC1CCN(Cc2ccccc2)CC1)c1ccc2c(Cl)c3c(nc2c1)CCCC3` [Example 32, N-((1-benzylpiperidin-4-yl)methyl)-9--chloro-5,6,7,8-tetrahydroacridine-3-carboxamide], the GI50 [1] is reported as 3.1 µM, the IC50 (USP8) is reported as > 200 µM and the IC50 (USP7) is reported as 17.6 µM.
